Laboratory results: US20120309773A1, “HETEROCYCLIC COMPOUNDS AS JANUS KINASE INHIBITORS” (priority 2009, published 2012)

| Compound | melting point [°C] |
| --- | --- |
| O=C(NC1CC1)c1cc(Nc2nc(N3CCCC3c3ccccn3)nc3ccoc23)[nH]n1 (centres unmarked) [Compound 12E, N-cyclopropyl-5-(2-(2-(pyridin-2-yl)pyrrolidin-1-yl)furo[3,2-d]pyrimidin-4-ylamino)-1H-pyrazole-3-carboxamide] | 238.4 |
| O=C(NC1CCC1)c1cc(Nc2nc(N3CCCC3c3ccccn3)nc3ccoc23)[nH]n1 (centres unmarked) [Compound 13E, N-cyclobutyl-5-(2-(2-(pyridin-2-yl)pyrrolidin-1-yl)furo[3,2-d]pyrimidin-4-ylamino)-1H-pyrazole-3-carboxamide] | 250.1 |
| O=C(NC1CCC1)c1cc(Nc2nc(N3CCCC3c3ccccn3)nc3ccoc23)n[nH]1 (centres unmarked) [Compound 14F, N-cyclobutyl-3-(2-(2-(pyridin-2-yl)pyrrolidin-1-yl)furo[3,2-d]pyrimidin-4-ylamino)-1H-pyrazole-5-carboxamide] | 274.3 |
| O=C(NC1CC1)c1cc(Nc2nc(N3CCC[C@H]3CO)nc3ccoc23)n[nH]1 [Compound 15C, (S)—N-cyclopropyl-3-(2-(2-(hydroxymethyl)pyrrolidin-1-yl)furo[3,2-d]pyrimidin-4-ylamino)-1H-pyrazole-5-carboxamide] | 96.8 |
| CN(C)c1nc(Nc2cc(C(=O)NC3CCC3)n[nH]2)c2occc2n1 [Compound 19A, N-cyclobutyl-5-(2-(dimethylamino)furo[3,2-d]pyrimidin-4-ylamino)-1H-pyrazole-3-carboxamide] | 270.8 |
